Measured values: patent publication US9586928B2 (The Scripps Research Institute, priority 2011, dated 2017)

Columns and labels:
Assay type in all cases: cell-based
Conditions in all cases: 10 μM
LXR = biological target: T1, LXR (Homo sapiens, UniProt Q13133); assay: Gal4-LXRα / UAS luciferase cotransfection assay
T1 sequence (Q13133 209-447 limits assumed): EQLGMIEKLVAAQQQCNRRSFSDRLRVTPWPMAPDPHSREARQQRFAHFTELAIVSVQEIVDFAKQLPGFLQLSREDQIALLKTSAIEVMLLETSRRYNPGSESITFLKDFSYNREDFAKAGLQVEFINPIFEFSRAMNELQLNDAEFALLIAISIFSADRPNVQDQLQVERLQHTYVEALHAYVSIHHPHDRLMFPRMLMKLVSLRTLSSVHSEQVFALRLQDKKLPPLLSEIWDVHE
Experimental: (§1) The cells were treated with either DMSO or various compounds as indicated four hours after replating. Following additional 20 hour incubation, luciferase levels were assayed by one-step addition of 20 μL BriteLite (Perkin Elmer) and read using an Envision multilabel plate reader (Perkin Elmer).
(§2) Cotransfection assays were performed as previously described in HEK293 cells (Gal4 cotransfection assay or IL-17 luciferase reporter)[8]. HEK293 and the mouse lymphoma EL4 (ATCC) cells were maintained in DMEM supplemented with 10% FBS plus antibiotics (penicillin and streptomycin; Invitrogen).

RORγ = biological target: T2, RORγ (Homo sapiens, UniProt P51449); assay: Gal4-RORγ LBD / UAS luciferase cotransfection assay
T2 construct: expressed in transfected cells; host or cells: HEK293T
T2 sequence (P51449 269-508 limits assumed): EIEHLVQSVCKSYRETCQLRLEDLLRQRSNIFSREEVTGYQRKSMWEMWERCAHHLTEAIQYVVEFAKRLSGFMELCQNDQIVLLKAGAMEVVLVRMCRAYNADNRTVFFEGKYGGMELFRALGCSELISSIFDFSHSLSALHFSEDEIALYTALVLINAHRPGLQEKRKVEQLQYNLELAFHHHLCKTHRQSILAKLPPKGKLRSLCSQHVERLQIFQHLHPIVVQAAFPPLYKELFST
Experimental: as §1, §2

RORα = biological target: T3, RORα (Homo sapiens, UniProt P35398); assay: Gal4-RORα LBD / UAS luciferase cotransfection assay
T3 construct: expressed in transfected cells; host or cells: HEK293T
T3 sequence (P35398 272-510 limits assumed): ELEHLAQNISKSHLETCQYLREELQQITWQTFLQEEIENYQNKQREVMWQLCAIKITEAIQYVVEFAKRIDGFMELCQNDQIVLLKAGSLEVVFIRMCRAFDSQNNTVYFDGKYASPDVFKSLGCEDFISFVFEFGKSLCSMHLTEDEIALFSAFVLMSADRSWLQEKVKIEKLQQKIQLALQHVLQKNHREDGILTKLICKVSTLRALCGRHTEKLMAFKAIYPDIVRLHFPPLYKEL

VP16 = assay: Gal4 DBD-VP16 / UAS luciferase control assay
Experimental: as §1

SMILES	LXR activation, fold change over DMSO (LXR)	RORγ repression, fold change over DMSO (RORγ)	RORα repression, fold change over DMSO (RORα)	VP16 repression, fold change over DMSO (VP16)
O=C(Nc1ccccc1)N1CCN(Cc2ccc(-c3ccc(C(O)(C(F)(F)F)C(F)(F)F)cc3)cc2)CC1 [Compound 23, 4-((4′-(1,1,1,3,3,3-Hexafluoro-2-hydroxypropan-2-yl)-[1,1′-biphenyl]-4-yl)methyl)-N-phenylpiperazine-1-carboxamide]	2 fold change over DMSO	0.5 fold change over DMSO	0.9 fold change over DMSO	0.55 fold change over DMSO
O=C(NCc1ccccc1)N1CCN(Cc2ccc(-c3ccc(C(O)(C(F)(F)F)C(F)(F)F)cc3)cc2)CC1 [Compound 24, N-Benzyl-4-((4′-(1,1,1,3,3,3-hexafluoro-2-hydroxypropan-2-yl)-[1,1′-biphenyl]-4-yl)methyl)piperazine-1-carboxamide]	1.3 fold change over DMSO	0.25 fold change over DMSO	0.5 fold change over DMSO	0.25 fold change over DMSO
CCC(=O)N1CCN(Cc2ccc(-c3ccc(C(O)(C(F)(F)F)C(F)(F)F)cc3)cc2)CC1 [Compound 25, 1-(4-((4′-(1,1,1,3,3,3-Hexafluoro-2-hydroxypropan-2-yl)-[1,1′-biphenyl]-4-yl)methyl)piperazin-1-yl)propan-1-one]	1 fold change over DMSO	0.45 fold change over DMSO	0.7 fold change over DMSO	0.5 fold change over DMSO
O=C(c1ccccc1)N1CCN(Cc2ccc(-c3ccc(C(O)(C(F)(F)F)C(F)(F)F)cc3)cc2)CC1 [Compound 26, (4-((4′-(1,1,1,3,3,3-Hexafluoro-2-hydroxypropan-2-yl)-[1,1′-biphenyl]-4-yl)methyl)piperazin-1-yl)(phenyl)methanone]	2 fold change over DMSO	0.8 fold change over DMSO	0.9 fold change over DMSO	0.7 fold change over DMSO
O=C(Cc1ccccc1)N1CCN(Cc2ccc(-c3ccc(C(O)(C(F)(F)F)C(F)(F)F)cc3)cc2)CC1 [Compound 27, 1-(4-((4′-(1,1,1,3,3,3-Hexafluoro-2-hydroxypropan-2-yl)-[1,1′-biphenyl]-4-yl)methyl)piperazin-1-yl)-2-phenylethanone]	0.8 fold change over DMSO	0.25 fold change over DMSO	0.5 fold change over DMSO	0.3 fold change over DMSO
CS(=O)(=O)N1CCN(Cc2ccc(-c3ccc(C(O)(C(F)(F)F)C(F)(F)F)cc3)cc2)CC1 [Compound 28, 1,1,1,3,3,3-Hexafluoro-2-(4′-((4-(methylsulfonyl)piperazin-1-yl)methyl)-[1,1′-biphenyl]-4-yl)propan-2-ol]	1.5 fold change over DMSO	0.5 fold change over DMSO	1.1 fold change over DMSO	0.75 fold change over DMSO
O=S(=O)(c1ccccc1)N1CCN(Cc2ccc(-c3ccc(C(O)(C(F)(F)F)C(F)(F)F)cc3)cc2)CC1 [Compound 29, 1,1,1,3,3,3-Hexafluoro-2-(4′-((4-(phenylsulfonyl)piperazin-1-yl)methyl)-[1,1′-biphenyl]-4-yl)propan-2-ol]	1.8 fold change over DMSO	0.8 fold change over DMSO	1 fold change over DMSO	0.8 fold change over DMSO
O=S(=O)(Cc1ccccc1)N1CCN(Cc2ccc(-c3ccc(C(O)(C(F)(F)F)C(F)(F)F)cc3)cc2)CC1 [Compound 30, 2-(4′-((4-(Benzylsulfonyl)piperazin-1-yl)methyl)-[1,1′-biphenyl]-4-yl)-1,1,1,3,3,3-hexafluoropropan-2-ol]	2 fold change over DMSO	0.75 fold change over DMSO	1 fold change over DMSO	0.75 fold change over DMSO
OC(c1ccc(-c2ccc(CN3CCN(Cc4ccnc(Br)c4)CC3)cc2)cc1)(C(F)(F)F)C(F)(F)F [Compound 40, 2-(4′-((4-((2-Bromopyridin-4-yl)methyl)piperazin-1-yl)methyl)-[1,1′-biphenyl]-4-yl)-1,1,1,3,3,3-hexafluoropropan-2-ol]	1 fold change over DMSO	0.05 fold change over DMSO	0.1 fold change over DMSO	0.05 fold change over DMSO
OC(c1ccc(-c2ccc(CN3CCN(CCc4ccncc4)CC3)cc2)cc1)(C(F)(F)F)C(F)(F)F [Compound 41, 1,1,1,3,3,3-Hexafluoro-2-(4′-((4-(2-(pyridin-4-yl)ethyl)piperazin-1-yl)methyl)-[1,1′-biphenyl]-4-yl)propan-2-ol]	1 fold change over DMSO	0.3 fold change over DMSO	0.5 fold change over DMSO	0.3 fold change over DMSO
OC(c1ccc(-c2ccc(CN3CCN(Cc4nc5ccccc5s4)CC3)cc2)cc1)(C(F)(F)F)C(F)(F)F [Compound 42, 2-(4′-((4-(Benzo[d]thiazol-2-ylmethyl)piperazin-1-yl)methyl)-[1,1′-biphenyl]-4-yl)-1,1,1,3,3,3-hexafluoropropan-2-ol]	1 fold change over DMSO	0.2 fold change over DMSO	0.4 fold change over DMSO	0.1 fold change over DMSO
Cc1cc(CN2CCN(Cc3ccc(-c4ccc(C(O)(C(F)(F)F)C(F)(F)F)cc4)cc3)CC2)ccn1 [Compound 43, 1,1,1,3,3,3-Hexafluoro-2-(4′-((4-((2-methylpyridin-4-yl)methyl)piperazin-1-yl)methyl)-[1,1′-biphenyl]-4-yl)propan-2-ol]	1 fold change over DMSO	0.1 fold change over DMSO	0.6 fold change over DMSO	0.6 fold change over DMSO
OC(c1ccc(-c2ccc(CN3CCN(c4ccncc4)CC3)cc2)cc1)(C(F)(F)F)C(F)(F)F [Compound 44, 1,1,1,3,3,3-Hexafluoro-2-(4′-((4-(pyridin-4-yl)piperazin-1-yl)methyl)-[1,1′-biphenyl]-4-yl)propan-2-ol]	1 fold change over DMSO	0.4 fold change over DMSO	0.5 fold change over DMSO	0.3 fold change over DMSO
OC(c1ccc(-c2ccc(CN3CCN(Cc4ccncc4)CC3)c(Cl)c2)cc1)(C(F)(F)F)C(F)(F)F [Compound 93, 2-(3′-Chloro-4′-((4-(pyridin-4-ylmethyl)piperazin-1-yl)methyl)-[1,1′-biphenyl]-4-yl)-1,1,1,3,3,3-hexafluoropropan-2-ol]	1.5 fold change over DMSO	0.05 fold change over DMSO	0.4 fold change over DMSO	0.7 fold change over DMSO
OC(c1ccc(-c2ccc(CN3CCN(Cc4ccncc4)CC3)cc2F)cc1)(C(F)(F)F)C(F)(F)F [Compound 95, 1,1,1,3,3,3-Hexafluoro-2-(2′-fluoro-4′-((4-(pyridin-4-ylmethyl)piperazin-1-yl)methyl)-[1,1′-biphenyl]-4-yl)propan-2-ol]	5 fold change over DMSO	0.05 fold change over DMSO	0.5 fold change over DMSO	0.7 fold change over DMSO
OC(c1ccc(-c2ccc(CN3CCN(Cc4c(F)cncc4F)CC3)cc2)cc1)(C(F)(F)F)C(F)(F)F [Compound 101, 2-(4′-((4-((3,5-Difluoropyridin-4-yl)methyl)piperazin-1-yl)methyl)-[1,1′-biphenyl]-4-yl)-1,1,1,3,3,3-hexafluoropropan-2-ol]	4 fold change over DMSO	0.15 fold change over DMSO	0.8 fold change over DMSO	0.75 fold change over DMSO
